According to PubChem BioAssay (NCI):
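48-hour exposure; five concentrations; linearly interpolated endpoints. TGI: concentration producing complete growth inhibition.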

These compounds were tested on 786-0 renal (assay: NCI tumour cell line growth inhibition, 48 h).

Row | SMILES | TGI [µM]
1 | O=C(O)c1nc2nc(Cl)c(Cl)nc2[nH]1 | > 100
2 | CN(C)CCNS(=O)(=O)c1ccc(N)cc1 | > 100
3 | COc1ccc(N=NC(=Nc2ccccc2)c2ccc(N(CCC#N)CCC#N)cc2)cc1 | > 100
4 | O=C(/C=C/c1ccc2c(c1)OCO2)Cc1nc2ncccc2[nH]c1=O | > 100
5 | CC(=O)Nc1nc(NC(C)=O)c2[nH]c(CO)nc2n1 | > 100
6 | COC(=O)C1CC(C=[N+](C)C)=C(SC)N1C(=O)OCc1ccccc1 (stereo not drawn) | > 100
7 | Nc1nccc(-c2c[nH]c3cc(Br)ccc23)n1 | 46.9

The compounds below were run on A498 renal (assay: NCI tumour cell line growth inhibition, 48 h).

Row | SMILES | TGI [µM]
8 | O=C(O)c1nc2nc(Cl)c(Cl)nc2[nH]1 | > 100
9 | CN(C)CCNS(=O)(=O)c1ccc(N)cc1 | > 100
10 | COc1ccc(N=NC(=Nc2ccccc2)c2ccc(N(CCC#N)CCC#N)cc2)cc1 | > 100
11 | O=C(/C=C/c1ccc2c(c1)OCO2)Cc1nc2ncccc2[nH]c1=O | > 100
12 | CC(=O)Nc1nc(NC(C)=O)c2[nH]c(CO)nc2n1 | > 100
13 | COC(=O)C1CC(C=[N+](C)C)=C(SC)N1C(=O)OCc1ccccc1 (stereo not drawn) | > 100

Each compound was assayed on A549 NSCLC (assay: NCI tumour cell line growth inhibition, 48 h).

Row | SMILES | TGI [µM]
14 | O=C(O)c1nc2nc(Cl)c(Cl)nc2[nH]1 | > 100
15 | CN(C)CCNS(=O)(=O)c1ccc(N)cc1 | > 100
16 | COc1ccc(N=NC(=Nc2ccccc2)c2ccc(N(CCC#N)CCC#N)cc2)cc1 | > 100
17 | O=C(/C=C/c1ccc2c(c1)OCO2)Cc1nc2ncccc2[nH]c1=O | > 100
18 | CC(=O)Nc1nc(NC(C)=O)c2[nH]c(CO)nc2n1 | > 100
19 | COC(=O)C1CC(C=[N+](C)C)=C(SC)N1C(=O)OCc1ccccc1 (stereo not drawn) | > 100
20 | Nc1nccc(-c2c[nH]c3cc(Br)ccc23)n1 | 35.5

The compounds below were run on ACHN renal (assay: NCI tumour cell line growth inhibition, 48 h).

Row | SMILES | TGI [µM]
21 | O=C(O)c1nc2nc(Cl)c(Cl)nc2[nH]1 | > 100
22 | CN(C)CCNS(=O)(=O)c1ccc(N)cc1 | > 100
23 | COc1ccc(N=NC(=Nc2ccccc2)c2ccc(N(CCC#N)CCC#N)cc2)cc1 | > 100
24 | O=C(/C=C/c1ccc2c(c1)OCO2)Cc1nc2ncccc2[nH]c1=O | > 100
25 | CC(=O)Nc1nc(NC(C)=O)c2[nH]c(CO)nc2n1 | > 100
26 | COC(=O)C1CC(C=[N+](C)C)=C(SC)N1C(=O)OCc1ccccc1 (stereo not drawn) | > 100
27 | Nc1nccc(-c2c[nH]c3cc(Br)ccc23)n1 | 66

The compounds below were run on BT-549 breast (assay: NCI tumour cell line growth inhibition, 48 h).

Row | SMILES | TGI [µM]
28 | O=C(O)c1nc2nc(Cl)c(Cl)nc2[nH]1 | > 100
29 | CN(C)CCNS(=O)(=O)c1ccc(N)cc1 | > 100
30 | COc1ccc(N=NC(=Nc2ccccc2)c2ccc(N(CCC#N)CCC#N)cc2)cc1 | > 100
31 | O=C(/C=C/c1ccc2c(c1)OCO2)Cc1nc2ncccc2[nH]c1=O | > 100
32 | CC(=O)Nc1nc(NC(C)=O)c2[nH]c(CO)nc2n1 | > 100
33 | COC(=O)C1CC(C=[N+](C)C)=C(SC)N1C(=O)OCc1ccccc1 (stereo not drawn) | > 100
34 | Nc1nccc(-c2c[nH]c3cc(Br)ccc23)n1 | > 100

These compounds were tested on CAKI-1 renal (assay: NCI tumour cell line growth inhibition, 48 h).

Row | SMILES | TGI [µM]
35 | O=C(O)c1nc2nc(Cl)c(Cl)nc2[nH]1 | > 100
36 | CN(C)CCNS(=O)(=O)c1ccc(N)cc1 | > 100
37 | COc1ccc(N=NC(=Nc2ccccc2)c2ccc(N(CCC#N)CCC#N)cc2)cc1 | > 100
38 | O=C(/C=C/c1ccc2c(c1)OCO2)Cc1nc2ncccc2[nH]c1=O | > 100
39 | CC(=O)Nc1nc(NC(C)=O)c2[nH]c(CO)nc2n1 | > 100
40 | COC(=O)C1CC(C=[N+](C)C)=C(SC)N1C(=O)OCc1ccccc1 (stereo not drawn) | > 100
41 | Nc1nccc(-c2c[nH]c3cc(Br)ccc23)n1 | 35

The compounds below were run on CCRF-CEM leukemia (assay: NCI tumour cell line growth inhibition, 48 h).

Row | SMILES | TGI [µM]
42 | O=C(O)c1nc2nc(Cl)c(Cl)nc2[nH]1 | > 100
43 | CN(C)CCNS(=O)(=O)c1ccc(N)cc1 | > 100
44 | O=C(/C=C/c1ccc2c(c1)OCO2)Cc1nc2ncccc2[nH]c1=O | > 100
45 | CC(=O)Nc1nc(NC(C)=O)c2[nH]c(CO)nc2n1 | > 100
46 | Nc1nccc(-c2c[nH]c3cc(Br)ccc23)n1 | > 100

What follows are compounds tested on COLO 205 colon (assay: NCI tumour cell line growth inhibition, 48 h).

Row | SMILES | TGI [µM]
47 | O=C(O)c1nc2nc(Cl)c(Cl)nc2[nH]1 | > 100
48 | CN(C)CCNS(=O)(=O)c1ccc(N)cc1 | > 100
49 | COc1ccc(N=NC(=Nc2ccccc2)c2ccc(N(CCC#N)CCC#N)cc2)cc1 | 28.6
50 | O=C(/C=C/c1ccc2c(c1)OCO2)Cc1nc2ncccc2[nH]c1=O | > 100
51 | CC(=O)Nc1nc(NC(C)=O)c2[nH]c(CO)nc2n1 | > 100
52 | COC(=O)C1CC(C=[N+](C)C)=C(SC)N1C(=O)OCc1ccccc1 (stereo not drawn) | > 100
53 | Nc1nccc(-c2c[nH]c3cc(Br)ccc23)n1 | > 100

The compounds below were run on DU-145 prostate (assay: NCI tumour cell line growth inhibition, 48 h).

Row | SMILES | TGI [µM]
54 | O=C(O)c1nc2nc(Cl)c(Cl)nc2[nH]1 | > 100
55 | CN(C)CCNS(=O)(=O)c1ccc(N)cc1 | > 100
56 | COc1ccc(N=NC(=Nc2ccccc2)c2ccc(N(CCC#N)CCC#N)cc2)cc1 | > 100
57 | O=C(/C=C/c1ccc2c(c1)OCO2)Cc1nc2ncccc2[nH]c1=O | > 100
58 | CC(=O)Nc1nc(NC(C)=O)c2[nH]c(CO)nc2n1 | > 100
59 | COC(=O)C1CC(C=[N+](C)C)=C(SC)N1C(=O)OCc1ccccc1 (stereo not drawn) | > 100
60 | Nc1nccc(-c2c[nH]c3cc(Br)ccc23)n1 | > 100

What follows are compounds tested on EKVX NSCLC (assay: NCI tumour cell line growth inhibition, 48 h).

Row | SMILES | TGI [µM]
61 | O=C(O)c1nc2nc(Cl)c(Cl)nc2[nH]1 | > 100
62 | CN(C)CCNS(=O)(=O)c1ccc(N)cc1 | > 100
63 | COc1ccc(N=NC(=Nc2ccccc2)c2ccc(N(CCC#N)CCC#N)cc2)cc1 | > 100
64 | O=C(/C=C/c1ccc2c(c1)OCO2)Cc1nc2ncccc2[nH]c1=O | > 100
65 | CC(=O)Nc1nc(NC(C)=O)c2[nH]c(CO)nc2n1 | > 100
66 | COC(=O)C1CC(C=[N+](C)C)=C(SC)N1C(=O)OCc1ccccc1 (stereo not drawn) | > 100
67 | Nc1nccc(-c2c[nH]c3cc(Br)ccc23)n1 | 9.15

The compounds below were run on HCC-2998 colon (assay: NCI tumour cell line growth inhibition, 48 h).

Row | SMILES | TGI [µM]
68 | CN(C)CCNS(=O)(=O)c1ccc(N)cc1 | > 100
69 | COc1ccc(N=NC(=Nc2ccccc2)c2ccc(N(CCC#N)CCC#N)cc2)cc1 | > 100
70 | O=C(/C=C/c1ccc2c(c1)OCO2)Cc1nc2ncccc2[nH]c1=O | > 100
71 | CC(=O)Nc1nc(NC(C)=O)c2[nH]c(CO)nc2n1 | > 100
72 | COC(=O)C1CC(C=[N+](C)C)=C(SC)N1C(=O)OCc1ccccc1 (stereo not drawn) | > 100
73 | Nc1nccc(-c2c[nH]c3cc(Br)ccc23)n1 | 64.9

Each compound was assayed on HCT-116 colon (assay: NCI tumour cell line growth inhibition, 48 h).

Row | SMILES | TGI [µM]
74 | O=C(O)c1nc2nc(Cl)c(Cl)nc2[nH]1 | > 100
75 | CN(C)CCNS(=O)(=O)c1ccc(N)cc1 | > 100
76 | COc1ccc(N=NC(=Nc2ccccc2)c2ccc(N(CCC#N)CCC#N)cc2)cc1 | > 100
77 | O=C(/C=C/c1ccc2c(c1)OCO2)Cc1nc2ncccc2[nH]c1=O | > 100
78 | CC(=O)Nc1nc(NC(C)=O)c2[nH]c(CO)nc2n1 | > 100
79 | COC(=O)C1CC(C=[N+](C)C)=C(SC)N1C(=O)OCc1ccccc1 (stereo not drawn) | > 100
80 | Nc1nccc(-c2c[nH]c3cc(Br)ccc23)n1 | 40.2

Each compound was assayed on HCT-15 colon (assay: NCI tumour cell line growth inhibition, 48 h).

Row | SMILES | TGI [µM]
81 | O=C(O)c1nc2nc(Cl)c(Cl)nc2[nH]1 | > 100
82 | CN(C)CCNS(=O)(=O)c1ccc(N)cc1 | > 100
83 | COc1ccc(N=NC(=Nc2ccccc2)c2ccc(N(CCC#N)CCC#N)cc2)cc1 | > 100
84 | O=C(/C=C/c1ccc2c(c1)OCO2)Cc1nc2ncccc2[nH]c1=O | > 100
85 | CC(=O)Nc1nc(NC(C)=O)c2[nH]c(CO)nc2n1 | > 100
86 | COC(=O)C1CC(C=[N+](C)C)=C(SC)N1C(=O)OCc1ccccc1 (stereo not drawn) | > 100
87 | Nc1nccc(-c2c[nH]c3cc(Br)ccc23)n1 | > 100

Each compound was assayed on HL-60(TB) leukemia (assay: NCI tumour cell line growth inhibition, 48 h).

Row | SMILES | TGI [µM]
88 | O=C(O)c1nc2nc(Cl)c(Cl)nc2[nH]1 | > 100
89 | CN(C)CCNS(=O)(=O)c1ccc(N)cc1 | > 100
90 | O=C(/C=C/c1ccc2c(c1)OCO2)Cc1nc2ncccc2[nH]c1=O | > 100
91 | CC(=O)Nc1nc(NC(C)=O)c2[nH]c(CO)nc2n1 | > 100
92 | Nc1nccc(-c2c[nH]c3cc(Br)ccc23)n1 | > 100

The compounds below were run on HOP-62 NSCLC (assay: NCI tumour cell line growth inhibition, 48 h).

Row | SMILES | TGI [µM]
93 | O=C(O)c1nc2nc(Cl)c(Cl)nc2[nH]1 | > 100
94 | CN(C)CCNS(=O)(=O)c1ccc(N)cc1 | 32.4
95 | COc1ccc(N=NC(=Nc2ccccc2)c2ccc(N(CCC#N)CCC#N)cc2)cc1 | > 100
96 | O=C(/C=C/c1ccc2c(c1)OCO2)Cc1nc2ncccc2[nH]c1=O | > 100
97 | CC(=O)Nc1nc(NC(C)=O)c2[nH]c(CO)nc2n1 | > 100
98 | COC(=O)C1CC(C=[N+](C)C)=C(SC)N1C(=O)OCc1ccccc1 (stereo not drawn) | > 100
